From PubChem BioAssay AID179 (DTP/NCI, 2004) come the findings set out here.

In the experiment the test system is CEM cells HIV-1 protection, formazan growth assay. The experiment can be described thus: NCI AIDS Antiviral Assay. The settings on record: for IC50: measured here: growth of uninfected CEM cells. Summed up:
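Five concentrations of each compound were applied to infected and uninfected human CEM cells. Protection from HIV-1 was judged from growth measured with a soluble formazan assay.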

The source made the active and inactive calls.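 Rule for the calls: active = compounds giving half or more protection of infected cells from virus-caused growth loss, again on retest; inactive = the rest.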

As for `CC(C)c1c(O[Si](C(C)C)(C(C)C)C(C)C)cc2c(c1O)CC[C@H]1C(C)(C)CCC[C@]21C`, the EC50 – broadly, the concentration that produces a half-maximal response – is over 200 µM and the IC50 (usually the concentration that inhibits the measured activity by half) was 26.9 µM.

In the case of `Cc1ccc(S(=O)(=O)OCC2OC(CCCO)C/C([Si](C)(C)C)=C\CC2Cl)cc1` (stereo not given), the EC50 was over 8.13 µM and the IC50 was over 8.13 µM.

On to `CN1CCC23c4c5ccc(O)c4OC2C(=NN=C2CCC4(O)C6Cc7ccc(O)c8c7C4(CCN6C)C2O8)CCC3(O)C1C5` (stereo not given), for which the EC50 was over 200 µM and the 50% inhibitory concentration (IC50) came to 105 µM.

Consider `COc1ccc2[nH]c3c(C)cc([N+](=O)[O-])c(C)c3c2c1`, for which the EC50 is over 200 µM and the IC50 is 10.7 µM.

As to `COc1cc(C(C[N+](=O)[O-])SC(C)=O)ccc1OCc1ccccc1` (stereo not given), the EC50 was over 200 µM and the half-inhibitory concentration (IC50) is 1.95 µM.

Consider `Cc1c(C(=O)c2ccccc2)n(COCCC[Se]c2ccccc2)c(=O)[nH]c1=O`, for which the EC50 is over 200 µM and the 50% inhibitory concentration (IC50) was 18.2 µM.

For `C#CC(O)c1ccc(OC)c(OC)c1` (stereo not given), the result was inactive.

Regarding `COc1cc(C2SCC(=O)N2c2ccc(-n3c(-c4ccccc4)nc4ccccc4c3=O)cc2)ccc1O` (stereo not given), the EC50 is over 200 µM and the IC50 turned out to be 102 µM.

As for `COc1cc2c(OC)cc1CSCc1sc(C)c(c1Br)CSC2`, the EC50 was over 11.5 µM and the IC50 is over 11.5 µM.

Take `O=c1c2ccc(Cl)cc2oc2ccc(Cl)cc12`: the EC50 is over 26.9 µM and the IC50 was over 26.9 µM.

As to `O=C1OCC2=C1C(c1ccc3c(c1)OCO3)c1cc3c(cc1O2)OCO3` (stereo not given), the EC50 is over 200 µM and the IC50 is 1.66 µM.

For `CC1(C)OC(=O)C(=Cc2ccc(O)cc2)C(=O)O1`, the EC50 is over 1000 µM and the 50% inhibitory concentration (IC50) is 550 µM.

In the case of `COc1ccc2oc3c(OC)c(OC)c(OC)cc3c(=O)c2c1`, the EC50 was over 8.71 µM.

Consider `N#CCCN(CCC#N)c1ccc(/C=C2\SC(=S)NC2=O)cc1`, for which the EC50 was over 200 µM and the IC50 was over 200 µM.

As to `CCC[CH2][Sn]1([CH2]CCC)[O]C(=O)c2cc(I)cc(I)c2[O]1`, the outcome was inactive.

On to `O=c1[nH]c(=O)n(C2OC(CO)C(O)C2O)cc1OCCc1ccccc1` (stereo not given), for which the EC50 is over 200 µM and the half-inhibitory concentration (IC50) is over 200 µM.

Consider `CCN(CC)c1c(N(CC)CC)c(=O)c1=O`, for which the EC50 was over 200 µM and the IC50 came to 6.03 µM.

As to `Cn1ncc2c(Nc3ccc(Cl)cc3)c3ccccc3nc21`, the result was inactive.

In the case of `COP1(=O)OCC(C)(C)CO1`, the EC50 is over 1380 µM and the IC50 was over 1380 µM.

In the case of `CC(CCc1ccccc1)NCC(O)n1c(/N=N/N(C)C)nc2c1c(=O)n(C)c(=O)n2C` (stereo not given), the EC50 was over 200 µM and the IC50 was over 200 µM.

For the compound `COC(=O)/C=C/C(=N/Nc1ccccc1)c1ccccc1`, the EC50 is over 200 µM and the IC50 was found to be 28.8 µM.

Regarding `CN(C)CCCNC(=O)c1cc(NC(=O)c2cc(NC(=O)c3cc(NC(=O)c4ccc(C(=O)Nc5cn(C)c(C(=O)Nc6cn(C)c(C(=O)Nc7cn(C)c(C(=O)NCCCN(C)C)n7)n6)n5)cc4)cn3C)cn2C)cn1C`, the EC50 is over 50.1 µM and the IC50 was over 50.1 µM.

As for `O=C1CSC(=O)N1`, the EC50 was over 2140 µM and the half-inhibitory concentration (IC50) is over 2140 µM.

Regarding `Cc1ccc(S(=O)(=O)OCC2CC[C@]3(C)C4CCC5(C)C(CCC5[C@H](C)CCC(=O)O)[C@@H]4CC[C@@H]3C2)cc1` (stereo not given in full), the EC50 was over 4.9 µM and the 50% inhibitory concentration (IC50) is over 4.9 µM.

Consider `CCOC(=O)CCC(NC(=O)OCc1ccccc1)C(=O)NC(CCC(=O)OCC)C(=O)NC(CCC(=O)OCC)C(=O)NC(CCC(=O)OCC)C(=O)NC(CCC(=O)OCC)C(=O)OCC` (stereo not given), for which the EC50 was over 100 µM and the IC50 was over 100 µM.

Regarding `CN=C1Nc2ccccc2C(=S)N2CSC[C@@H]12`, the EC50 is over 200 µM and the IC50 is over 200 µM.

Turning to `Cc1cn(C2CC(n3cncn3)C(C(C)O)O2)c(=O)[nH]c1=O` (stereo not given), the EC50 was over 813 µM and the half-inhibitory concentration (IC50) was over 813 µM.

On to `COC(=O)C1(C)NCCc2c1[nH]c1ccccc21` (stereo not given), for which the EC50 was over 331 µM and the half-maximal inhibitory concentration (IC50) is over 331 µM.

With `COc1cc(/C=N/NC2=NCCN2)ccc1O`, the EC50 was over 200 µM and the IC50 is over 200 µM.

`COc1cc2c(cc1OC)C1C=NC(C(=O)O)(C2)c2ccccc21` (stereo not given): the outcome was inactive.

For the compound `O/N=C1\CC(c2ccccc2)Oc2ccccc21` (stereo not given), the EC50 is over 200 µM and the IC50 came to 126 µM.

Regarding `CCn1nc(C(=O)O)c(=O)c2cc3c(cc21)OCO3`, the EC50 is over 200 µM and the IC50 is over 200 µM.

Turning to `Cc1cc(-c2ccc(Cl)cc2)c(C#N)c(=S)n1C1OC(CO)C(O)C(O)C1O` (stereo not given), the EC50 is over 200 µM and the concentration for half-maximal inhibition (IC50) is over 200 µM.

For `OC1CSCCSCCCSCCSC1`, the EC50 is over 126 µM and the IC50 is over 126 µM.

Take `CC(C)(C)COc1ccc2c(c1)-c1nc-2nc2[nH]c(nc3nc(nc4[nH]c(n1)c1ccc(OCC(C)(C)C)cc41)-c1cc(OCC(C)(C)C)ccc1-3)c1ccc(OCC(C)(C)C)cc21`: the EC50 was over 8.32 µM and the 50% inhibitory concentration (IC50) is over 8.32 µM.

`NC1(CCNC(=O)c2ccccc2)CCN(C(=O)c2ccccc2)CC1`: the EC50 was over 200 µM and the IC50 was determined as 145 µM.

Consider `N=c1c2c(ncn1N)CCN(Cc1ccccc1)C2`, for which the EC50 is over 200 µM and the half-inhibitory concentration (IC50) amounted to 30.9 µM.

With `CC(=O)Nc1ccc2cc(C)c(=O)[nH]c2n1`, the EC50 is over 200 µM and the IC50 is over 200 µM.

`COC(=O)C12CC3CC(CC(NC(=O)C(Cc4ccccc4)NC(=O)CN)(C3)C1)C2` (stereo not given): the EC50 is over 200 µM and the IC50 is 110 µM.

On to `O=C(/C=C/c1ccccc1Cl)c1ccccc1`, for which the EC50 is over 21.4 µM and the half-maximal inhibitory concentration (IC50) is 14.5 µM.

Consider `O=c1[nH]nc(Nc2ccccc2)c2nnn(Cc3ccccc3)c12`, for which the result was inactive.

With `OCC1CC(F)C(n2cnc3c(NOCc4ccccc4)ncnc32)O1` (stereo not given), the EC50 was over 100 µM and the half-maximal inhibitory concentration (IC50) is over 100 µM.

`COc1ccccc1/C=C(\NC(=O)c1ccccc1)C(=O)NC(C)C`: the EC50 was over 200 µM and the IC50 is over 200 µM.

On to `O=c1oc2c(c(=O)n1-c1ccccc1)CC1(CCCCC1)C2`, for which the EC50 was over 200 µM and the IC50 is over 200 µM.

Consider `O=S1(=O)C=C(c2ccccc2)C2(c3ccccc3)C=NNC21` (stereo not given), for which the EC50 was over 200 µM and the IC50 was over 200 µM.

As for `O=C1CN(CCCN2CCOCC2)CC(=O)N2Cc3ccccc3CN12`, the EC50 was over 200 µM and the 50% inhibitory concentration (IC50) was over 200 µM.

As for `COc1cc(C(c2c(O)c3ccccc3oc2=O)c2c(O)c3ccccc3oc2=O)ccc1O`, the EC50 is over 200 µM and the IC50 was determined as 56.2 µM.

Take `COC(=O)C1=C(\O)C[C@@]2(C)CC[C@@H](C(=O)OC)C2C/C=C\1C(=O)OC` (stereo not given in full): the result was inactive.

Regarding `O=C(NCCNCCNC(=O)C(F)(F)F)C(F)(F)F`, the EC50 was over 200 µM and the IC50 was over 200 µM.

Turning to `O=C(O)c1cc(Sc2ccc([N+](=O)[O-])c(C(=O)O)c2)ccc1[N+](=O)[O-]`, the EC50 is over 200 µM and the half-inhibitory concentration (IC50) was over 200 µM.

As for `COc1ccc2c(c1OC)CN(C)CCc1cc3c(c(OC)c1C(=O)C2)OCO3`, the result was inactive.

Take `CCOC(=O)/C(=C\n1c(=S)[nH]c2cc(C)ccc21)C(=O)c1ccccc1`: the EC50 was over 100 µM and the IC50 is over 100 µM.

With `O=C1CN=C(c2ccccn2)c2cc(Cl)ccc2N1CCO`, the EC50 is over 794 µM and the IC50 was determined as 468 µM.

In the case of `CC1(C2(C)OC(=O)c3ccccc32)OC(=O)c2ccccc21` (stereo not given), the EC50 was over 200 µM and the IC50 is over 200 µM.

For `O=c1[nH]nc(Cc2ccccc2)n1Nc1ccccc1`, the EC50 was over 200 µM and the concentration for half-maximal inhibition (IC50) is over 200 µM.

Take `O=[N+]([O-])c1ccccc1S(=O)c1ccccc1` (stereo not given): the EC50 is 6.76 µM and the half-inhibitory concentration (IC50) worked out at 22.4 µM.

For the compound `Clc1ccc(Cl)c(SSc2cc(Cl)ccc2Cl)c1`, the outcome was inactive.

Regarding `CC1CC[C@]2(C(=O)O)CCC3(COC(=O)/C=C\c4ccc(O)cc4)C(=CCC4[C@@]5(C)CC[C@H](O)C(C)(C)C5CC[C@]43C)[C@@H]2[C@H]1C` (stereo not given in full), the EC50 is over 41.7 µM and the IC50 worked out at 11 µM.

For `O=C1NC(=O)C23C(=O)NC(=O)C12C1C=CC3CC1` (stereo not given), the EC50 was over 200 µM and the 50% inhibitory concentration (IC50) was over 200 µM.

For the compound `CC(C)=CCC/C(C)=C/Cc1cc2ccc(=O)oc2cc1O`, the EC50 was over 63.1 µM and the IC50 is 32.4 µM.

With `CCOC(=O)c1ccc(N(CC/C(CN)=N/NC(N)=O)C(C)=O)cc1`, the EC50 is over 646 µM and the IC50 was 363 µM.

Consider `CC(=O)c1c2c(cc3c1CC1(Cc4ccccc4C1=O)C3)CCC2` (stereo not given), for which the EC50 is over 200 µM and the 50% inhibitory concentration (IC50) came out at 17.8 µM.

`O=C(O)[C@@H]1CSC(C(O)C(O)C(O)C(O)CO)N1` (stereo not given in full): the EC50 is over 200 µM and the IC50 is over 200 µM.

Consider `CC(=O)c1ccc2c(c1)N(CCCN1CCN(CCO)CC1)c1ccccc1S2`, for which the EC50 is over 200 µM and the half-maximal inhibitory concentration (IC50) was determined as 10.2 µM.

Take `O=Nc1ccc2ccccc2c1N=Nc1ccccc1C(=O)O`: the EC50 is over 200 µM and the IC50 turned out to be 182 µM.

Consider `O=c1c(-c2ccc(O)cc2)coc2cc(O)cc(O)c12`, for which the EC50 is over 200 µM and the IC50 stood at 5.62 µM.

On to `CN1CC[C@]2(C)c3ccc(O)cc3CC3CCCC1C32C` (stereo not given in full), for which the outcome was inactive.

As for `CCN(CC)P(=O)(c1ccc2c(c1)OCCOCCOCCOCCO2)N(CC)CC`, the EC50 is over 200 µM and the IC50 is over 200 µM.

Take `O=S1(=O)NNC(=NCc2ccc(Cl)cc2)c2ccccc21`: the outcome was inactive.

Take `O=c1[nH]ncc2c1ncn2C1CCC(CO)O1` (stereo not given): the EC50 is 195 µM and the IC50 was over 200 µM.

As to `O=C(/C=C/c1ccc([N+](=O)[O-])cc1)c1ccc(NCc2nc3ccccc3[nH]2)cc1`, the EC50 is over 13.2 µM and the 50% inhibitory concentration (IC50) was over 13.2 µM.

For the compound `O=[N+]([O-])c1cccc(-c2csc(N=Nc3c(O)[nH]c4ccccc34)n2)c1`, the EC50 is over 200 µM and the concentration for half-maximal inhibition (IC50) is over 200 µM.

Regarding `CN(C)c1ccc(/C=C/C=C(/C#N)c2ccccc2)cc1`, the EC50 was over 100 µM and the half-maximal inhibitory concentration (IC50) is 12.3 µM.
